Measurements from patent US11812774B2, “Composition for browning inhibition and use of same” (SUNTORY HOLDINGS LIMITED, priority 2016, dated 2023).

Experiments:
[1] = Aldehyde-scavenging substance screening (Br value and Xt value, 96-well microplate); details: sample solution 600 ppm total phenol; epicatechin + glyoxal; 70° C., 16 hours; Br and Xt values relative to negative control; N=3
Protocol: Aldehyde-scavenging ability of a candidate substance was evaluated based on how much the candidate substance added to a mixture of glyoxal (model aldehyde) and epicatechin (reaction substrate) can inhibit browning. The negative control was distilled water. As positive control, fractions 6, 7, and 8 (mixtures containing baicalin and baicalin glycosides (compounds containing one to three glucose molecules bonded to a sugar moiety of baicalin)) obtained in Preparation 1 were used.
A glyoxal aqueous solution (39% (v/v)) and epicatechin were used as reagents. […]
Accelerated aging was performed at 70° C. for 16 hours, and the area under the spectrum at 400 to 600 nm and the absorbance at 487 nm were measured.
The amount of change in the visible absorbance before and after accelerated aging was calculated. […] The Br value indicates the amount of change Δ in the area under the spectrum at 400 to 600 nm, and the Xt value indicates the amount of change Δ in the absorbance at 487 nm. […] In FIG. 14, the solid line indicates the absorbance when a substance having an aldehyde-scavenging effect (a substance having a browning-inhibiting effect) was added, and the dashed line indicates the absorbance of the negative control. […]

[2] = Protocol: A sample solution was prepared by dissolving a candidate substance in water to adjust the total phenol amount derived from the candidate substance to 600 ppm. The total phenol amount was measured by the Folin-Denis method, using gallic acid as a standard substance.
[3] = LC-MS analysis of accelerated-aged mixture of baicalin and glyoxal; details: baicalin 0.5 g/L + glyoxal 0.01 g/L, condition 3 (oxygen aeration, 123° C., 30 min)
Protocol: A mixture (green tea model) of epicatechin (EC) (0.5 g/L) and glyoxal (0.01 g/L) was accelerated-aged under condition 3 (after oxygen aeration, stored at 123° C. for 30 minutes) in Test Example 2, and analyzed by LC-MS under the following conditions. • LC-MS measurement conditions • LC • Column: 2.5 Cholester (Nacalai Tesque, Inc.) (100 mmL.×2.0 I.D.) • Mobile phase: • A: 0.1% formic acid/H2O • B: 0.1% formic acid/CH3CN • Gradient elution method • Time program (concentration of B solution is expressed in percent by volume): B 5% (0-0.5 min)→B 32% (20 min)→B 100% (25-27.5 min)→B 5% (27.51-30 min) • Flow rate: 0.25 mL/min • Column temperature: 40° C. • Sample injection volume: 2 μL • MS • Probe voltage: +4.5 kV (ESI positive mode) • −3.5 kV (ESI negative mode) • Nebulizer gas flow rate: 1.5 L/min • Drying gas flow rate: 20 L/min • DL temperature: 250° C. • DL voltage/Q-array voltage: default value • SCAN: m/z 100-800 (positive, negative) • SIM: A mixture of baicalin (0.5 g/L) and glyoxal (0.01 g/L) was accelerated-aged under condition 3 (after oxygen aeration, stored at 30 min at 123° C.) of Test Example 2, and analyzed by LC-MS. LC-MS measurement conditions are the same as those in Test Example 5. […]

[4] = Accelerated aging of epicatechin/glyoxal model solution, change in visible absorption spectrum; details: baicalin 0.5 g/L added to epicatechin 0.5 g/L + glyoxal 0.01 g/L; condition 3 (oxygen aeration, 123° C., 30 minutes); compared to no baicalin
Protocol: The preparation prepared above was subjected to an aging test under the following conditions, and then the visible absorption spectrum was measured. Condition 1: purged with nitrogen, stored at 4° C. for one hour Condition 2: stored at 121° C. for […] Condition 3: after oxygen aeration, stored at 123° C. for 30 minutes Baicalin (0.5 g/L) was added to a model solution obtained by mixing epicatechin (0.5 g/L) with glyoxal (0.01 g/L). The mixture was accelerated-aged under condition 3 (after oxygen aeration, stored at 123° C. for 30 minutes) in Test Example 2, and the amount of change in the visible absorption spectrum (ΔABU) before and after accelerated aging was calculated. FIG. 9 is a diagram showing changes in a visible absorption spectrum of the model solution by addition of baicalin.

[5] = Accelerated aging of baicalin/epicatechin/glyoxal mixtures, visible absorption spectrum and residual catechin by LC-MS; details: 15 minutes
Protocol: The following three kinds of solutions were prepared. B+G: a mixture of baicalin (0.5 g/L) and glyoxal (0.01 g/L) B+C+G: a mixture of baicalin (0.5 g/L), epicatechin (0.5 g/L), and glyoxal (0.01 g/L) C+G: a mixture of epicatechin (0.5 g/L) and glyoxal (0.01 g/L)
These solutions were kept in an autoclave at 121° C. for 15 minutes for accelerated aging. After accelerated aging, changes in color were checked by visual observation, and further, the visible absorption spectrum was measured.
FIG. 10(a) is a picture showing the appearance of the mixture of baicalin and glyoxal (B+G), the mixture of baicalin, epicatechin, and glyoxal (B+C+G), and the mixture of epicatechin and glyoxal (C+G) after accelerated aging; and FIG. 10(b) is a diagram showing visible absorption spectra of the same (FIG. 10(a): picture, (b): visible absorption spectra). In FIG. 10(b), the solid line indicates the mixture (B+G), the dashed line indicates the mixture (B+C+G), and the long dashed dotted line indicates the mixture (C+G).
Further, after accelerated aging, the amount of epicatechin (the amount of a residual catechin) in the mixture (B+C+G) and the mixture (C+G) was measured by LC-MS under the same conditions as in Test Example 3.

SMILES | aldehyde-scavenging ability [1] | water solubility [2] | production of compound having a xanthylium structure (brown) by reaction with glyoxal [3] | amount of change in the visible absorption spectrum (ΔABU) before and after accelerated aging [4] | absorption at 487 nm after accelerated aging ([5]; B+C+G (baicalin 0.5 g/L, epicatechin 0.5 g/L, glyoxal 0.01 g/L) vs C+G, autoclave 121° C.) | amount of the residual catechin in a solution after accelerated aging ([5]; B+C+G vs C+G, 121° C., epicatechin by LC-MS)
O=C(O)[C@H]1O[C@@H](Oc2cc3oc(-c4ccc(O)cc4)cc(=O)c3c(O)c2O)[C@H](O)[C@@H](O)[C@@H]1O [scutellarin] | confirmed | – | – | – | – | –
COc1ccc(-c2oc3c(CC=C(C)C)c(O[C@@H]4O[C@H](CO)[C@@H](O)[C@H](O)[C@H]4O)cc(O)c3c(=O)c2O[C@@H]2O[C@@H](C)[C@H](O)[C@@H](O)[C@H]2O)cc1 [icariin] | confirmed | poor water solubility | – | – | – | –
O=C(O)[C@H]1O[C@@H](Oc2cc3oc(-c4ccccc4)cc(=O)c3c(O)c2O)[C@H](O)[C@@H](O)[C@@H]1O [baicalin] | – | – | No compound having a xanthylium structure that exhibits brown was detected | significantly reduced | significantly reduces | increases
